Laboratory results reported in the METLIN SMRT retention time set (Domingo-Almenara et al. 2019).

Test: gradient 5% acetonitrile 3 min, to 50% in 2 min, to 85% in 15 min, held 3 min, 100 µL/min
Settings: column: Zorbax Extend-C18 2.1 x 50 mm; eluents: water / acetonitrile, 0.1% formic acid
In short: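 Retention times come from adduct peaks that were picked computationally and then checked by hand. The standards, pure and pooled in mixtures of ~100 molecules, were run on a Zorbax Extend-C18 column (2.1 × 50 mm, 1.8 μm) at 100 μL/min with water and acetonitrile, each with 0.1% formic acid. Detection was by quadrupole time-of-flight mass spectrometry in positive and negative ionization mode, with a dead volume of 40 μL and a dwell volume of 900 μL.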

| SMILES | RP-LC retention time |
| --- | --- |
| Cc1ccccc1-c1nnc(CSc2nnc(NC(=O)C3CC3)s2)o1 | 822 s |
| O=C(NCc1ccccn1)c1cc(-c2cccnc2)nc2ccc(Br)cc12 | 898 s |
| CCCN(C(=O)c1ccco1)c1nc(-c2ccccc2)cs1 | 1250 s |
| COCCOC(=O)c1c(C)oc2ccc(OC(=O)c3cccs3)cc12 | 1020 s |
| O=C(NCc1ccco1)c1ccc2c(c1)N(Cc1ccc(F)cc1)C(=O)CO2 | 830 s |
| O=C(Nc1cccc(OCc2nnc(-c3ccc(Cl)cc3)o2)c1)c1ccccn1 | 1070 s |
| O=C(Nc1cc(-c2ccsc2)no1)c1ccc(C(F)(F)F)cc1 | 1060 s |
| CCN(CC)c1nc2ccsc2c(=O)n1CCC(=O)NCCc1c[nH]c2ccccc12 | 822 s |
| Cc1ccc(NC(=O)N(C)CCc2noc(COc3ccc(F)cc3)n2)cc1 | 926 s |
| Cc1cc(NS(=O)(=O)c2cc3n(c2)CCCNC3=O)ccc1Cl | 711 s |
| CCN1CCN(Cc2nc3cc(NC(=O)c4cccs4)ccc3n2C(C)C)CC1 | 586 s |
| O=C(Cc1cccc(F)c1)NCC(=O)Nc1nc2ccccc2[nH]1 | 623 s |
| O=C(NCCCn1ncccc1=O)c1ccccc1C(F)(F)F | 635 s |
| CCNC(=O)N(CC(=O)N1CCc2sccc2C1COc1ccccc1)C(C)CC (stereo unspecified) | 892 s |
| CC(C)c1ccc(C(=O)Nc2ccc3c(c2)Sc2ncccc2C(=O)N3C)cc1 | 950 s |
| COc1ccc(-c2ccnc3nc(-c4ccco4)nn23)c(F)c1 | 819 s |
| COc1ccc(-c2cn3c(CC(=O)Nc4cc(C)on4)csc3n2)cc1OC | 664 s |
| CCOc1ccccc1NC(=O)c1cn(C)c2ncccc12 | 927 s |
| COc1ccc(Nc2c(-c3ccc(N4CCOCC4)cc3)nc3ncccn23)cc1OC | 619 s |
| Cc1ccccc1-c1noc(Cn2c(=O)n(Cc3cccc(Cl)c3)c(=O)c3sccc32)n1 | 819 s |
| Fc1ccc(-c2noc(Cc3nc(-c4ccc(Cl)cc4)cs3)n2)cc1 | 1310 s |
| Cc1noc(C)c1Cc1ccc(C(=O)NCC2Cn3cccc3C(=O)N2C)o1 (stereo unspecified) | 669 s |
| CC1SC(C)C(=O)N(CC(=O)NCCc2ccccc2)C1=O (stereo unspecified) | 764 s |

| SMILES | RP-LC retention time |
| --- | --- |
| CCc1nc2ccccc2n1CC(O)COc1ccc(C)c(C)c1 (stereo unspecified) | 696 s |
| COc1ccc(Br)c2c1-c1nc(NC(=O)c3ccc(F)cc3)sc1C2 | 1170 s |
| CCc1ccc2oc(C(=O)NCC(c3ccc(OC)cc3)N(C)C)cc(=O)c2c1 (stereo unspecified) | 656 s |
| CCCNC(=O)Cc1c(C)nc2nc(-c3ccccc3)nn2c1C | 704 s |
| COc1ccc(-c2nc3cnccn3c2Nc2ccc(C(=O)NCC3CCCO3)cc2)cc1OC (stereo unspecified) | 645 s |
| O=c1n(CCOc2ccccc2)nc2c(S(=O)(=O)N3CCCC3)cccn12 | 794 s |
| CCCNC(=O)c1cnn(-c2ccc(SCC)nn2)c1C | 777 s |
| N#Cc1cccnc1N1CCN(c2ccccn2)CC1 | 590 s |
| COc1ccc(NC(=O)C2CC2)c2ccccc12 | 729 s |
| COC[C@@H]1CN(S(=O)(=O)c2cccc(F)c2)C[C@H]1c1ccncc1 | 649 s |
| CCOc1ccc(Nc2c3ccccc3nc3ccccc23)cc1 | 795 s |
| COc1ccc(NC(=O)Cn2cccc2-c2nnc(-c3ccccc3)o2)cc1Cl | 997 s |
| Cc1ccc(-c2nnc(-c3nn(C)c4c3CN(S(=O)(=O)c3cc(F)ccc3C)CC4)o2)cc1 | 1050 s |
| Cc1nc2cc(-c3noc(-c4sc(C)nc4C)n3)ccc2o1 | 951 s |
| Cn1nccc1-c1cccc(-c2noc(-c3ccoc3)n2)c1 | 938 s |
| Cc1cccc(-c2noc(C3CCCN3S(=O)(=O)c3ccc(C)c(Cl)c3)n2)c1 (stereo unspecified) | 1270 s |
| COc1ccc(-c2noc(-c3nc(Cc4cccc(F)c4)no3)n2)cc1OC | 1100 s |
| COc1ccc(-c2cn3c(CC(=O)Nc4ccc(Cl)cc4)csc3n2)cc1OC | 799 s |
| CC(C)C(NC(=O)c1ccc([N+](=O)[O-])cc1)c1nc2ccccc2[nH]1 (stereo unspecified) | 591 s |
| Cc1ccc(C(=O)NCCc2c[nH]c3ccc(F)cc23)cc1 | 841 s |
| Cc1ccn2cc(-c3ccc(NS(=O)(=O)c4ccc(C)c(C)c4)cc3)nc2n1 | 682 s |
| Cc1cc(N2CCN(C)CC2)nc2ccc(NC(=O)CCC(=O)NCCc3ccc(Cl)cc3)cc12 | 581 s |

Other lines, results leading:

| RP-LC retention time | SMILES |
| --- | --- |
| 611 s | Cn1nc2ccc(S(=O)(=O)N3CCOCC3)cn2c1=O |
| 721 s | O=C(Cn1c(=O)cnc2cc(C(=O)NC3CCCC3)ccc21)NCc1ccc(F)cc1F |
| 842 s | Cc1ccc2c(c1)N(CC#N)N=C(C(=O)N1CCC(C)CC1)S2(=O)=O |
| 742 s | COc1ccc(NC(=O)NC(C)C(=O)N2CCc3ccccc32)cc1OC (stereo unspecified) |
| 705 s | CCOC(=O)N1CCC(Nc2c(C(=O)OC)c(=O)[nH]c3ccc(F)cc23)CC1 |
| 1160 s | Cc1ccc(Oc2nccnc2N2CCCC(C(=O)NC(C)c3ccc(C)cc3C)C2)cc1 (stereo unspecified) |
| 654 s | CN1CCC(NC(=O)C2CCN(c3nc4ccc(-c5cccs5)nc4s3)CC2)CC1 |
| 882 s | O=C1CCSc2c1cccc2C(=O)N1CCN(c2ccc(F)cc2)CC1 |
| 573 s | CC(NC(=O)NC1CCCCC1)C(c1cccs1)N1CCN(C)CC1 (stereo unspecified) |
| 937 s | CN(C)S(=O)(=O)c1ccc(-c2nnc(C(=O)NCC3CCCCC3)o2)cc1 |
| 1160 s | O=C(NC1CCCCC1)c1nc(-c2ccc(N3CCCC3)cc2)no1 |
| 799 s | N#Cc1ccc(N2C=C(C(=O)N3CCCC3)S(=O)(=O)c3ccc(Cl)cc32)cc1 |
| 707 s | CN1C(=O)C2(CCN(C(=O)c3ccccc3)C2)c2ccccc21 (stereo unspecified) |
| 844 s | COc1cc(NC(=O)C2CCCN2S(=O)(=O)c2ccc3c(c2)CC(C)N3C(C)=O)cc(OC)c1 (stereo unspecified) |
| 590 s | CSc1ccc(NC(=O)N2CCc3nc[nH]c3C2)cc1 |
| 708 s | O=c1oc2cc(O)cc(O)c2c2c1CCCC2 |
| 630 s | Cn1cc(CCN2CCC(C(=O)NCc3cccc(Cl)c3)CC2)c2cccnc21 |
| 662 s | CCOc1ccc(NC(=O)c2cnc(N3CCN(C4CCCCC4)CC3)nc2N)cc1 |
| 1010 s | CCS(=O)(=O)Nc1ccc(C2(C(=O)N3CCCC(C)C3)CCCCC2)cc1 (stereo unspecified) |
| 873 s | O=C(C1=NN(Cc2ccc(F)cc2)c2ccc(Cl)cc2S1(=O)=O)N1CCOCC1 |
| 802 s | COCCCN(CC(=O)N1CCc2sccc2C1COc1ccc(F)cc1)C(C)=O (stereo unspecified) |
| 643 s | CCCn1c(=O)sc2cc(S(=O)(=O)N3CCC(C(=O)NCc4cccnc4)CC3)ccc21 |
| 678 s | O=S(=O)(NCCN1CCOCC1)c1cc(-c2noc(C3CCCC3)n2)cs1 |

| RP-LC retention time | SMILES |
| --- | --- |
| 828 s | COc1ccc(OC)c(NC(=O)N2CCC(N3CCN(Cc4ccccc4)C3=O)CC2)c1 |
| 565 s | COc1ccc2c(c1)c(CN1CCC(C(=O)NCCCN3CCc4ccccc4C3)CC1)cn2C |
| 719 s | O=C(c1ccoc1)N1CCC(OCc2nc(C3CC3)no2)CC1 |
| 652 s | Cc1[nH]cnc1CN1CCc2c(c3ccccc3n2C)C1=O |
| 640 s | Cn1cnc(S(=O)(=O)N2CCC(C(=O)NCc3cccs3)CC2)c1 |
| 766 s | O=C(CCc1c[nH]c2ccccc12)N1CCN2CCS(=O)(=O)N(C3CC3)C(=O)C2C1 (stereo unspecified) |
| 662 s | Cc1c(Cl)cccc1NC(=O)CN1CCc2[nH]c3c(C)cc(F)cc3c(=O)c2C1 |
| 575 s | O=C1CCC(C(=O)N2CCC3(CCC3O)CC2)=NN1 (stereo unspecified) |
| 781 s | O=C(NCCCN1CCCC1=O)c1csc(N2CCN(c3ccccc3)CC2)n1 |
| 869 s | O=C1NC2(CCN(C(=O)c3ccccc3)CC2)N=C1c1cccc(Cl)c1 |
| 811 s | CCn1c(=O)c(N2CCN(C(=O)NCc3ccco3)CC2)nc2ccccc21 |
| 791 s | O=C(NCc1ccc(F)cc1)c1ccc2c(c1)Sc1ncccc1C(=O)N2C1CC1 |
| 891 s | Cc1cccc(C2CCCN2C(=O)c2c(Cl)cnn2C)c1 (stereo unspecified) |
| 706 s | COc1ccc(C2(C(=O)N3CCCC(c4nnnn4C)C3)CC2)cc1 (stereo unspecified) |
| 567 s | C=CCNC(=O)c1nc(C(=O)N2CCN(c3ccccn3)CC2)cs1 |
| 899 s | CCC(C(=O)N1CCc2ccccc21)n1cnc2nc3c(cc2c1=O)CCCC3 (stereo unspecified) |
| 775 s | O=C(c1ccc(Cl)cc1)N1CCC(N(C(=O)C2CC2)C2CCOCC2)CC1 |
| 644 s | Cc1ccc(-c2cc(C(=O)N3CCN(C)CC3)n(C)c2)cc1 |
| 604 s | Cc1ccc(CNC(=O)c2cn3c(n2)CCCC3)cc1 |
| 827 s | Cc1cc(Cl)ccc1NS(=O)(=O)c1ccc2c(c1)NC(=O)C(C(=O)N1CCCC1)S2 (stereo unspecified) |
| 710 s | CN(C)C(=O)c1cc2c(s1)CCC(C(=O)NCCc1ccccc1)C2 (stereo unspecified) |
| 621 s | CCC(C)NC(=O)N1CCN(Cc2nc3cccnc3n2-c2ccc(OC)cc2)CC1 (stereo unspecified) |
| 674 s | Cc1ccc(NC(=O)N2CCN(c3cnn4c(C)nnc4c3)CC2)cc1Cl |
